By inhibition is commonly meant the relative decrease from the control value, in per cent. As usually defined, the CC50 is the concentration giving 50% cytotoxicity.

Read-outs that look alike come from different tables or passages of the source.

The subject of one series is HIV-IIIb. The experiment in a line: Test A: Antiviral Assay in MT4 Cells. The series is classed as cell-based, HIV-1. The settings on record: Human immunodeficiency virus 1, MT4, 120 h, read-out: % Inh @ 2 uM (percent inhibition of virus-induced cell killing); 2 uM test compound; MT-4 cells infected with HIV-IIIb, 5 days, CellTiter-Glo. As to the method:
(§1) Test A: Antiviral Assay in MT4 Cells For the antiviral assay, 40 μL of 1× test concentration of 3-fold serially diluted compound in culture medium with 10% FBS was added to each well of a 384-well plate (10 concentrations) in quadruplicate. MT-4 cells were next mixed with HIV-IIIb at an m.o.i of 0.003 for 1 hour, after which time 35 μL of virus/cell mixture (2000 cells) was immediately added to each well containing 40 μL of diluted compound. The plates were then incubated at 37° C. for 5 days. After 5 days of incubation, 25 μl of 2× concentrated CellTiter-Glo™ Reagent (catalog #G7571, Promega Biosciences, Inc., Madison, Wis.) was added to each well containing MT-4 cells. Cell lysis was carried out by incubating at room temperature for 10 min and then chemiluminescence was read. […] Accordingly, the compounds disclosed herein may be useful for treating an HIV virus infection, treating AIDS or for delaying the onset of AIDS or ARC symptoms.

A short description of series [1]: Test B: Cytotoxicity Assay (uninfected MT-4 cells). The format is cell-based. The settings on record: human, same protocol as Test A, read-out: MT4-CC50. As to the method:
as §1, with “For” for “Test A: Antiviral Assay in MT4 Cells For”, “Test B: Cytotoxicity Assay Compound cytotoxicity and” for “Accordingly,”, “corresponding CC50 values were determined using” for “compounds disclosed herein may be useful for treating an HIV virus infection, treating AIDS or for delaying”, “same protocol as described in the antiviral assay (Test A) except that uninfected cells were used.” for “onset of AIDS or ARC symptoms.”

For the molecule `COc1ccc(N(C)C(=O)[C@@H]2Cc3cccc(c3)CCCc3[nH]c4ccccc4c3CC(=O)N2)cc1` [Example 1, (4S)—N-(4-methoxyphenyl)-N-methyl-2-oxo-2,3,4,5,11,12,13,14-octahydro-1H-6,10-(metheno)azacyclopentadecino[5,4-b]indole-4-carboxamide], the ring closure, yield of all isomers (from COc1ccc(N(C)C(=O)[C@@H](N)Cc2cccc(CCCc3[nH]c4ccccc4c3CC(=O)O)c2)cc1, amide bond, DPPA, DIPEA, DMF, 2.99 mM, 25.0 °C, 16.0 h) worked out at 23.9%. For the same molecule, the inhibition at 2 µM in the series with HIV-IIIb came to 103%. The CC50 at 5 days in series [1] was greater than 50.3 µM.
Where the note is “from C=CCc1cccc(C[C@H](NC(=O)Cc2c(Br)n(C(=O)OC(C)(C)C)c3ccc(OC)nc23)C(=O)OC)c1, cc_pd bond, Pd(OAc)2, DMF, 2.46 mM, 120.0 °C, 5.0 h”, `COC(=O)[C@@H]1Cc2cccc(c2)C/C=C/c2[nH]c3ccc(OC)nc3c2CC(=O)N1` returned a ring closure, yield of all isomers of 33.3%.
In turn, `COc1ccc(N(C)C(=O)[C@@H]2Cc3cccc(c3)CSc3[nH]c4ccccc4c3CC(=O)N2)cc1` [Example 20, (9S)—N-(4-methoxyphenyl)-N-methyl-11-oxo-8,9,10,11,12,17-hexahydro-7,3-(metheno)[1,6]thiazacyclotetradecino[2,3-b]indole-9(2H)-carboxamide] returned a ring closure, yield of all isomers (from COc1ccc(N(C)C(=O)[C@@H](N)Cc2cccc(CSc3[nH]c4ccccc4c3CC(=O)O)c2)cc1, amide bond, DPPA, DIPEA, DMF, 3.0 mM, 25.0 °C, 16.0 h) of 65.8%. The inhibition at 2 µM with HIV-IIIb stood at 97.7%. Also, in series [1], the CC50 at 5 days came out at 45.2 µM.
Consider `COc1ccc(N(C)C(=O)[C@@H]2Cc3cccc(c3)CCSCc3[nH]c4ccccc4c3CC(=O)N2)cc1` [Example 5, (11S)—N-(4-methoxyphenyl)-N-methyl-13-oxo-3,4,10,11,12,13,14,19-octahydro-1H-9,5-(metheno)[1,7]thiazacyclohexadecino[3,4-b]indole-11-carboxamide], for which the ring closure, yield of all isomers (from COc1ccc(N(C)C(=O)[C@@H](N)Cc2cccc(CCSCc3[nH]c4ccccc4c3CC(=O)O)c2)cc1, amide bond, DPPA, DIPEA, DMF, 2.95 mM, 25.0 °C, 16.0 h) came out at 65.8%. In addition, the inhibition at 2 µM with HIV-IIIb came out at 33.4%. In series [1], the CC50 at 5 days is 49.5 µM.
Regarding `COc1ccc(N(C)C(=O)[C@@H]2Cc3cccc(c3)SCc3[nH]c4ccccc4c3CC(=O)N2)cc1` [Example 18, (9S)—N-(4-methoxyphenyl)-N-methyl-11-oxo-8,9,10,11,12,17-hexahydro-1H-7,3-(metheno)[1,7]thiazacyclotetradecino[3,4-b]indole-9-carboxamide], for the setting “from COc1ccc(N(C)C(=O)[C@@H](N)Cc2cccc(SCc3[nH]c4ccccc4c3CC(=O)O)c2)cc1, amide bond, DPPA, DIPEA, DMF, 3.01 mM, 25.0 °C, 16.0 h”, the ring closure, yield of all isomers came out at 65.5%. In addition, the inhibition at 2 µM in the series on HIV-IIIb was 47.3%. Also, the CC50 at 5 days in series [1] is greater than 53 µM.
For the setting “from COc1ccc(N(C)C(=O)[C@@H](N)Cc2cccc(CSCc3[nH]c4ccccc4c3CC(=O)O)c2)cc1, amide bond, DPPA, DIPEA, DMF, 3.01 mM, 25.0 °C, 16.0 h”, `COc1ccc(N(C)C(=O)[C@@H]2Cc3cccc(c3)CSCc3[nH]c4ccccc4c3CC(=O)N2)cc1` [Example 15, (10S)—N-(4-methoxyphenyl)-N-methyl-12-oxo-9,10,11,12,13,18-hexahydro-1H-8,4-(metheno)[1,7]thiazacyclopentadecino[3,4-b]indole-10(3H)-carboxamide] returned a ring closure, yield of all isomers of 49.1%. In addition, the inhibition at 2 µM with HIV-IIIb was 95.8%. For the same molecule, in series [1], the CC50 at 5 days is greater than 51.4 µM.
In the case of `CN(C(=O)N1Cc2cc(F)cc(c2)/C=C\Cc2c(c3ccccc3n2C(=O)OC(C)(C)C)CC(=O)N1)c1ccc(Cl)cc1`, the ring closure, yield of all isomers (from C=CCc1c(CC(=O)NN(Cc2cc(F)cc(Br)c2)C(=O)N(C)c2ccc(Cl)cc2)c2ccccc2n1C(=O)OC(C)(C)C, cc_pd bond, Pd(OAc)2, acetonitrile, 3.1 mM, 110.0 °C, 1.0 h) was determined as 23.6%.
Take `COc1ccc(N(C)C(=O)[C@@H]2Cc3cccc(c3)/C=C/Cc3c(c4ccccc4n3C(=O)OC(C)(C)C)CC(=O)N2)cc1`: the ring closure, yield of all isomers (from C=CCc1c(CC(=O)N[C@@H](Cc2cccc(I)c2)C(=O)N(C)c2ccc(OC)cc2)c2ccccc2n1C(=O)OC(C)(C)C, cc_pd bond, Pd2(dba)3, acetonitrile, 19.6 mM, 82.0 °C) came out at 57.4%.
For the molecule `CN(C(=O)[C@@H]1Cc2cccc(c2)CCCc2cc(C(F)(F)F)nn2CC(=O)N1)c1ccc(Cl)cc1` [Example 32], for the setting “from C=CCc1cc(C(F)(F)F)nn1CC(=O)N[C@@H](Cc1cccc(Br)c1)C(=O)N(C)c1ccc(Cl)cc1, cc_pd bond, Pd(OAc)2 / 2-di-tert-butylphosphino-2'-(N,N-dimethylamino)biphenyl / triethylamine, DMF, 2.81 mM, 120.0 °C, 2 steps”, the ring closure, yield of all isomers was 15%. Moreover, in the series on HIV-IIIb, the inhibition at 2 µM was determined as 72.3%. Further, the CC50 at 5 days in series [1] was determined as 22.5 µM.
Turning to `COC(=O)[C@@H]1Cc2cc(F)cc(c2)/C=C\Cc2c(c3ccccc3n2C(=O)OC(C)(C)C)CC(=O)N1`, for the setting “from C=CCc1c(CC(=O)N[C@@H](Cc2cc(F)cc(Br)c2)C(=O)OC)c2ccccc2n1C(=O)OC(C)(C)C, cc_pd bond, Pd(PPh3)4, acetonitrile, 4.3 mM, 82.0 °C, 6.0 h”, the ring closure, yield of all isomers was 49.9%.
With `COc1ccc(N(C)C(=O)[C@@H]2Cc3cccc(c3)/C=C/Cc3[nH]c4ccccc4c3CC(=O)N2)cc1` [Example 22, (4S,11E)-N-(4-methoxyphenyl)-N-methyl-2-oxo-2,3,4,5,13,14-hexahydro-1H-6,10-(metheno)azacyclopentadecino[5,4-b]indole-4-carboxamide], the inhibition at 2 µM in the series with HIV-IIIb was determined as 64.5%. The CC50 at 5 days in series [1] is greater than 52.6 µM.
In the same order, the values of `COc1ccc(N(C)C(=O)[C@@H]2Cc3cccc(c3)CCS(=O)(=O)Cc3[nH]c4ccc(F)cc4c3CC(=O)N2)cc1` [Example 10] are 1.8% and greater than 53 µM.

The values above are taken from patent publication US9012441B2, “Therapeutic compounds” (Gilead Sciences, Inc., priority 2013, dated 2015).
